Experiments:
[1] = Stability study: loss of purity over time by liquid chromatography; type: physicochemical
Procedure: Formula I amorphous material and Forms I, II, III and IV were examined for loss of purity over time as determined by liquid chromatography.
The sample preparations for the stability study are described as follows: • Formula I Amorphous: A sample of amorphous solids was placed at about 22° C. open to air and the purity was monitored over 3 days by liquid chromatography. • Formula I Form I: Samples of Formula I Form I were placed in sealed glass vials and placed in a chamber at about 40° C. and about 75% RH and the purity was periodically monitored by liquid chromatography. • Formula I Form II: Samples of Formula I Form II were placed in an open vial. The vial was placed inside a container alongside a saturated salt solution to provide a humidity of about 88% RH and sealed. The sealed container was then placed into a chamber at about 40° C. and the purity was periodically monitored by liquid chromatography. • Formula I Form III: Samples of Formula I Form […] and sealed. The sealed container was then placed into a chamber at about 40° C. and the purity was periodically monitored by liquid chromatography. • Formula I Form IV: Samples of Formula I Form IV were packaged at about 0% RH inside a PE bag and heat-sealed inside a foil pouch. The pouches were then placed in a chamber at about 40° C. and the purity was periodically monitored by liquid chromatography.

[2] = Dynamic vapor sorption (DVS) hygroscopicity; type: physicochemical; conditions: 25° C.
Procedure: Hygroscopicity was studied using dynamic vapor sorption (DVS, TA Q5000 SA, TA Instruments, New Castle, DE or DVS, DVS Intrinsic, Surface Measurement Systems, London, UK). A sample (2-20 mg) was placed in an aluminum DVS pan and loaded on the sample side of the twin pan balance. The water sorption and desorption were studied as a function of relative humidity (RH) at 25° C. In 10% RH increments, the relative humidity was increased from 5% RH to 95% RH and then decreased back to 5% (some cases from 0 to 90% RH and then decrease back to 0%). […] Data analysis was performed using Universal Analysis 2000 Version 4.7A (TA Instruments, New Castle, DE) for TA DVS runs and Microsoft Excel for SMS DVS runs.

Cn1ccc2c([C@@H](c3cn(C45CC(C4)C5)nn3)N(C(=O)OCOP(=O)(O)O)c3cc(Cl)c4ncc(C#N)c(NCC(C)(C)C)c4c3)cccc2c1=O [Formula I Amorphous]
Formula I Purity Over Time (% purity) ([1]; About 22° C., open to atmosphere, 0 days): 95.74 % purity
Formula I Purity Over Time (% purity) ([1]; About 22° C., open to atmosphere, 1 day): 95.45 % purity
Formula I Purity Over Time (% purity) ([1]; About 22° C., open to atmosphere, 2 days): 95.18 % purity
Formula I Purity Over Time (% purity) ([1]; About 22° C., open to atmosphere, 3 days): 95.05 % purity

Cn1ccc2c([C@@H](c3cn(C45CC(C4)C5)nn3)N(C(=O)OCOP(=O)(O)O)c3cc(Cl)c4ncc(C#N)c(NCC(C)(C)C)c4c3)cccc2c1=O [Formula I Form III]
Formula I Purity Over Time (% purity) ([1]; About 40° C., about 27% RH, 0 days): 98.61 % purity
Formula I Purity Over Time (% purity) ([1]; About 40° C., about 27% RH, 1 day): 98.58 % purity
Formula I Purity Over Time (% purity) ([1]; About 40° C., about 27% RH, 7 days): 98.55 % purity
Formula I Purity Over Time (% purity) ([1]; About 40° C., about 27% RH, 14 days): 98.50 % purity

Cn1ccc2c([C@@H](c3cn(C45CC(C4)C5)nn3)N(C(=O)OCOP(=O)(O)O)c3cc(Cl)c4ncc(C#N)c(NCC(C)(C)C)c4c3)cccc2c1=O [Formula I Form II]
Formula I Purity Over Time (% purity) ([1]; About 40° C., about 88% RH, 0 days): 98.78 % purity
Formula I Purity Over Time (% purity) ([1]; About 40° C., about 88% RH, 1 day): 98.67 % purity
Formula I Purity Over Time (% purity) ([1]; About 40° C., about 88% RH, 7 days): 98.64 % purity
Formula I Purity Over Time (% purity) ([1]; About 40° C., about 88% RH, 14 days): 98.59 % purity
loss of purity over time ([1]; compared to Formula I Form I or Formula I amorphous material): decreased loss of purity over time

Cn1ccc2c([C@@H](c3cn(C45CC(C4)C5)nn3)N(C(=O)OCOP(=O)(O)O)c3cc(Cl)c4ncc(C#N)c(NCC(C)(C)C)c4c3)cccc2c1=O [Formula I Form IV]
Formula I Purity Over Time (% purity) ([1]; About 40° C., about 0% RH, 0 days): 99.49 % purity
Formula I Purity Over Time (% purity) ([1]; About 40° C., about 0% RH, 14 days): 99.44 % purity
Formula I Purity Over Time (% purity) ([1]; About 40° C., about 0% RH, 28 days): 99.43 % purity

Cn1ccc2c([C@@H](c3cn(C45CC(C4)C5)nn3)N(C(=O)OCOP(=O)(O)O)c3cc(Cl)c4ncc(C#N)c(NCC(C)(C)C)c4c3)cccc2c1=O [Formula I Form I]
Formula I Purity Over Time (% purity) ([1]; About 40° C., about 75% RH, 0 days): 99.13 % purity
Formula I Purity Over Time (% purity) ([1]; About 40° C., about 75% RH, 7 days): 98.37 % purity
Formula I Purity Over Time (% purity) ([1]; About 40° C., about 75% RH, 14 days): 97.97 % purity
Formula I Purity Over Time (% purity) ([1]; About 40° C., about 75% RH, 28 days): 96.57 % purity
DVS weight change ([2]; RH 5-95%): about 9.5 weight percent

Cn1ccc2c([C@@H](c3cn(C45CC(C4)C5)nn3)N(C(=O)OCOP(=O)(O)O)c3cc(Cl)c4ncc(C#N)c(NCC(C)(C)C)c4c3)cccc2c1=O [Formula I Glycolate]
DVS weight change ([2]; 0-90% RH): about 7.5%
DVS weight change ([2]; 50-90% RH): about 2%

Cn1ccc2c([C@@H](c3cn(C45CC(C4)C5)nn3)N(C(=O)OCOP(=O)(O)O)c3cc(Cl)c4ncc(C#N)c(NCC(C)(C)C)c4c3)cccc2c1=O [Formula I Pyruvate Form B]
DVS weight change ([2]; 10-90% RH): about 4.3%
DVS weight change ([2]; 50-90% RH): about 2.5%

Cn1ccc2c([C@@H](c3cn(C45CC(C4)C5)nn3)N(C(=O)OCOP(=O)(O)O)c3cc(Cl)c4ncc(C#N)c(NCC(C)(C)C)c4c3)cccc2c1=O [Formula I α-Ketobutyrate Form B]
DVS weight change ([2]; 0-90% RH): about 5.5%
DVS weight change ([2]; 50-90% RH): about 2%

Source: patent US20240174702A1, “SOLID FORMS OF A COMPOUND FOR […]” (Gilead Sciences, Inc., priority 2022, published 2024)
